Assay results from ChEMBL document CHEMBL1201862, “PubChem BioAssay data set” (2004).
Where “and” joins values, the source holds several entries; their conditions need not be identical. Equal values may be shown once. Calls of active or inactive are those of the source.

How the values were obtained:
[1] = molecular target: Endoplasmic reticulum aminopeptidase 1 (Homo sapiens, UniProt Q9NZ08); assay: ERAP1 aminopeptidase inhibitors, dose response, biochemical, cherry-pick, set 2, plate reader (AID 743314)
[2] = molecular target: T1, Disintegrin and metalloproteinase domain-containing protein 17 (Homo sapiens, UniProt P78536); assay: exosite inhibitors of ADAM17, dose response, biochemical (AID 743260)
[3] = molecular target: T1, Disintegrin and metalloproteinase domain-containing protein 17; assay: ADAM17 protease inhibitors, dose response, counter-screen for ADAM10 exosite inhibitor project, biochemical, quenched FRET substrate (AID 743253)
[4] = ADAM10 inhibitors, peptide cleavage, dose response, biochemical, QFRET (AID 743254);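 note: ADAM10 enzyme with the DM2 quenched FRET peptide as substrate; EDANS fluorescence gain as the protease cuts the substrate; inhibitor potency against ADAM10 proteolytic activity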
[5] = molecular target: 1-phosphatidylinositol 4,5-bisphosphate phosphodiesterase gamma-1 (Homo sapiens, UniProt P19174); assay: Counterscreen for inhibitors of phospholipase C isozymes (PLC-B3): Fluorescence-based biochemical high throughput dose response assay to identify inhibitors of phospholipase C isozymes (PLC-gamma1).
[6] = molecular target: T2, Histone-lysine N-methyltransferase NSD2 (Homo sapiens, UniProt O96028); format: biochemical
T2 sequence (O96028 whole entry): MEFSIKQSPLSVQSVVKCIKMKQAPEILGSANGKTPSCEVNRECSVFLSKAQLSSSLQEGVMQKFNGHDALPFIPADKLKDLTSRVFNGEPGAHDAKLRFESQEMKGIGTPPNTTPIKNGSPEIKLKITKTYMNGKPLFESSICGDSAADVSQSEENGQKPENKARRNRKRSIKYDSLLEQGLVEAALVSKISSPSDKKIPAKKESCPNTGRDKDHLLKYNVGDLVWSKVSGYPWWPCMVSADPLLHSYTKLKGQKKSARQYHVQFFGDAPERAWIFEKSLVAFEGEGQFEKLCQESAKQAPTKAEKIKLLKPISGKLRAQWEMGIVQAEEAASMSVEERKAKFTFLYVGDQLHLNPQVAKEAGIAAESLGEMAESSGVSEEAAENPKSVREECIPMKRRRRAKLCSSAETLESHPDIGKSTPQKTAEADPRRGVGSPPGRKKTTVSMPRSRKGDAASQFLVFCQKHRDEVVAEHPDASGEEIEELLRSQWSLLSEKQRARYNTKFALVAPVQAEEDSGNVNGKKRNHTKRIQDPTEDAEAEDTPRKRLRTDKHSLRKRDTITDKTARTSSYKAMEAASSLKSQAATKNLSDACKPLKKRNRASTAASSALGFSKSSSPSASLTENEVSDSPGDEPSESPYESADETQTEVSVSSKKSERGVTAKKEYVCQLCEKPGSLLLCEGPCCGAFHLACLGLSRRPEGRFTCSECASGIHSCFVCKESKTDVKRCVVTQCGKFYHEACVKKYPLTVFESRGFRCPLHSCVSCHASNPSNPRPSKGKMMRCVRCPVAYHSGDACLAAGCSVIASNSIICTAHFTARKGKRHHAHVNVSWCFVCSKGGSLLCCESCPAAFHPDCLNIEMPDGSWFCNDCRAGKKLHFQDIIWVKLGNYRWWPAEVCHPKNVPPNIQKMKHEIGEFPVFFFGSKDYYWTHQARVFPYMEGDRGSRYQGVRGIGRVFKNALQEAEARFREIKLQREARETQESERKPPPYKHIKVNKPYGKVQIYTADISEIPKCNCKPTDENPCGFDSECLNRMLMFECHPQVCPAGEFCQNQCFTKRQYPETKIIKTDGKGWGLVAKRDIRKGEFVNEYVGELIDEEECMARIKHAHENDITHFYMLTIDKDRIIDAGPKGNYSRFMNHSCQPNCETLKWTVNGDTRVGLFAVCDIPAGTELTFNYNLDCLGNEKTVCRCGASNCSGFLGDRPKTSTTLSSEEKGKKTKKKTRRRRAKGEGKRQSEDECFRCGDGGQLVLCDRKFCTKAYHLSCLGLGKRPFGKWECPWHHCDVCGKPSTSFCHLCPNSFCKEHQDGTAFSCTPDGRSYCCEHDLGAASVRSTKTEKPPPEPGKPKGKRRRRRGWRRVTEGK

[7] = molecular target: 1-phosphatidylinositol 4,5-bisphosphate phosphodiesterase beta-3 (Homo sapiens, UniProt Q01970); assay: Fluorescence-based biochemical high throughput dose response assay to identify inhibitors of phospholipase C isozymes (PLC-B3).
[8] = Late stage assay provider results from the probe development effort to identify selective inhibitors of heat shock protein 90 (HSP90): Absorbance-based cell proliferation assay in MCF7 cells.; format: functional
[9] = Late stage assay provider results from the probe development effort to identify selective inhibitors of heat shock protein 90 (HSP90): Absorbance-based cell proliferation assay in SKBR3 cells.; format: functional; details: SK-BR-3
Transthyretin = Transthyretin (Homo sapiens, UniProt P02766); assay: Luminescence-based cell-based high throughput dose response assay to identify activators of Transthyretin (TTR) transcription.; format: functional
[10] = ADAM10 protease inhibitors, dose response, selectivity assay for ADAM17 exosite inhibitor project, biochemical, FRET peptide substrate, recombinant human ADAM10 (AID 743259);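 note: ADAM10 enzyme cleaving a FRET peptide substrate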
[11] = Dose-response inhibition of insulin secretion in a rat insulinoma line at 5 mM glucose (AID 1117331); format: functional, cell-based; details: INS-1E
Cytochrome P450 2C9 = Cytochrome P450 2C9 (Homo sapiens, UniProt P11712)
[12] = IGROV1 ovarian cancer cell cytotoxicity, dose response, PAX8 inhibitor project, plate reader, dry powder samples (AID 743043); format: functional, cell-based; details: IGROV-1
[13] = NIH:OVCAR-3 ovarian cancer cell cytotoxicity, dose response, PAX8 inhibitor project, plate reader, dry powder samples (AID 743044); format: functional, cell-based
Paired box protein Pax-8 = Paired box protein Pax-8 (Homo sapiens, UniProt Q06710); assay: inhibitors of PAX8-driven TPO luciferase reporter, dose response, RMG-I cells, cherry-pick (AID 687027); format: functional, cell-based;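 note: luciferase reporter driven by Pax8 target thyroperoxidase promoter measured by SteadyGlo luminescence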
[14] = cytotoxicity in OVCAR8 ovarian cancer cells, dose response, PAX8 project, cell-based, plate reader, dry powder samples (AID 743197); format: functional; details: OVCAR-8
[15] = inhibitors of HIV Env-driven cell fusion, dose response, cherry-pick (AID 652057); format: functional, cell-based
[16] = ZM109 Env clade C HIV-1 fusion inhibitors, dose response, HeLa effector, CEM target cells, luciferase, cherry-pick (AID 652058); format: functional, cell-based
[17] = molecular target: RNA-editing ligase 1, mitochondrial (Trypanosoma brucei brucei, UniProt P86926); assay: TbREL1 ligase inhibitors, dose response, biochemical, fluorescence, Trypanosoma brucei (AID 1117295); format: functional
[18] = microbe, parasite or virus in culture; format: functional; details: Mycobacterium tuberculosis
[19] = inhibitors of clade B AD8 Env fusion, dose response, cell-based, cherry-pick (AID 652062); format: functional;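 note: luciferase signal from cell-cell fusion driven by HIV-1 clade B AD8 Env; potency is for inhibitors of fusion seen as a drop in luminescence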
HEK293 [20] = assay: cells; details: Homo sapiens
[21] = off-target signal loss in HeLa-CEM21 co-culture – HeLa F-luc CTL cells, cherry-picked, counter-screen for HIV-1 Env fusion inhibitor project, dose response (AID 652040); format: functional, cell-based;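 note: potency for signal decrease marking cytotoxic or nonspecific inhibition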
HEK293 [22] = assay: cells; details: Homo sapiens; remark: listed apart in the source
[23] = CEM21 lymphoblast cell cytotoxicity, dose response, cytotoxicity control for viral fusion inhibitor project, CellTiter-Glo luminescence, cherry-picked (AID 652042); format: functional, cell-based;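 note: potency for signal decrease meaning cytotoxicity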
[24] = Luminescence-based dose response cell-based high throughput screening assay for cytotoxic compounds using the IEC-6 intestinal epithelial cell line. [Related pubchem assays: 1858 (Summary AID.), 1825 (Counterscreen.), 1907 (Confirmation screen.)]; format: functional
[25] = molecular target: Neurotensin receptor type 1 (Homo sapiens, UniProt P30989); format: functional;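 note: Image-based confirmatory dose-response assay measuring agonist activity at NTR1; NTR1-expressing U2OS osteosarcoma cells imaged for beta-arrestin GFP spot formation; agonist potency where compounds increase beta-arrestin recruitment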
[26] = molecular target: T3, Heat shock factor protein 1 (Mus musculus, UniProt P38532); assay: inhibition of MG132-induced HSE-luciferase signal, confirmation, cell-based, NIH3T3, luminescence, dose retest (AID 2382); format: functional;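 note: NIH3T3 fibroblasts with HSF1-driven luciferase reporter stressed by proteasome inhibitor MG132; luminescence from HSF1-driven luciferase expression after 8 hours of MG132 stress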
T3 sequence (P38532 whole entry): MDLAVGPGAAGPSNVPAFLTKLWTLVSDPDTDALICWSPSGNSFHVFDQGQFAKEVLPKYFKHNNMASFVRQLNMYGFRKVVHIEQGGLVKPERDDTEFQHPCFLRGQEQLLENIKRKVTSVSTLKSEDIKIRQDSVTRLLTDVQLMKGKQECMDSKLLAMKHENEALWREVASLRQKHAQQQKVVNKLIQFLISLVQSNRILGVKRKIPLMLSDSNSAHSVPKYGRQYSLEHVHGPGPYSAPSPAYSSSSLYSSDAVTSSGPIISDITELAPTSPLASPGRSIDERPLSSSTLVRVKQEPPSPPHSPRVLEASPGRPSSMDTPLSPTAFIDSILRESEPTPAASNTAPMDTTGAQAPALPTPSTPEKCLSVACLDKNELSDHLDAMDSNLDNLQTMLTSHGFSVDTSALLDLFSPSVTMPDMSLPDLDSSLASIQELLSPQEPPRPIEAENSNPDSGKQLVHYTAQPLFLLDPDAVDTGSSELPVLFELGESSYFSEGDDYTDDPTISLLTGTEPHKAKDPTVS

[27] = molecular target: COUP transcription factor 2 (Homo sapiens, UniProt P24468); assay: Luminescence-based cell-based high throughput dose response assay to identify inhibitors of COUP-TFII (NR2F2).; format: functional;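 note: HEK293 cells transiently cotransfected with COUP-TFII expression vector and reporter; luciferase reporter luminescence driven by COUP-TFII from the pX2-168 reporter plasmid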
[28] = cytotoxicity in A549 cells, dose response, cytotoxicity control, cell-based, CellTiter-Glo luminescence, cherry-pick (AID 743484); format: functional
[29] = molecular target: Metabotropic glutamate receptor 5 (Rattus norvegicus, UniProt P31424); assay: Identification of a glycine sulfonamide based non-MPEP site positive allosteric potentiator (PAM) of mGlu5 (calcium_assay).; format: functional
[30] = inhibitors of control Renilla luciferase reporter, dose response, counter-screen for Shn3 3'UTR targeting project, Clone20-Shn3RL cells, dual-Glo, cherry-pick, set 2 (AID 720724); format: functional, cell-based; details: Dual-Go Shn3RL
[31] = reduction of Shn3 3'UTR firefly luciferase signal, dose response, Schnurri-3 inhibitor project, cell-based, Clone20 osteoblasts, cherry-pick, set 2 (AID 720490); format: functional;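 note: actives lower the luminescence signal as inhibitors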
[32] = Shn3 3'UTR reporter inhibitors, dose response, cell-based, Clone20 osteoblasts, firefly luciferase, cherry-picked (AID 624132); format: functional;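 note: firefly luciferase luminescence from reporter carrying the Shn3 3'UTR in osteoblasts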
[33] = CEM21 cell cytotoxicity, dose response, cytotoxicity control, plate reader, dry powder (AID 687026); format: functional, cell-based
[34] = HIV Env cell-cell fusion inhibitors, dose response, HIV entry, plate reader, dry powder (AID 687023); format: functional, cell-based
[35] = THP-1 cell cytotoxicity, dose response, cytotoxicity control for Vif-APOBEC3G degradation inhibitor project, THP-1 cells (AID 1117359); format: functional; details: Human immunodeficiency virus 1, THP-1
[36] = molecular target: NAD-dependent protein deacylase sirtuin-5, mitochondrial (Homo sapiens, UniProt Q9NXA8); assay: SIRT5 desuccinylase inhibitors, dose response, biochemical, fluorescence imaging, cherry-pick, set 5 (AID 720591);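 note: desuccinylation of succinyl peptide AMC substrate read as fluorescence after trypsin release; potency of inhibitors that lower fluorescence and may act on trypsin instead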

T1 sequence (P78536 whole entry, the tested form may be a part): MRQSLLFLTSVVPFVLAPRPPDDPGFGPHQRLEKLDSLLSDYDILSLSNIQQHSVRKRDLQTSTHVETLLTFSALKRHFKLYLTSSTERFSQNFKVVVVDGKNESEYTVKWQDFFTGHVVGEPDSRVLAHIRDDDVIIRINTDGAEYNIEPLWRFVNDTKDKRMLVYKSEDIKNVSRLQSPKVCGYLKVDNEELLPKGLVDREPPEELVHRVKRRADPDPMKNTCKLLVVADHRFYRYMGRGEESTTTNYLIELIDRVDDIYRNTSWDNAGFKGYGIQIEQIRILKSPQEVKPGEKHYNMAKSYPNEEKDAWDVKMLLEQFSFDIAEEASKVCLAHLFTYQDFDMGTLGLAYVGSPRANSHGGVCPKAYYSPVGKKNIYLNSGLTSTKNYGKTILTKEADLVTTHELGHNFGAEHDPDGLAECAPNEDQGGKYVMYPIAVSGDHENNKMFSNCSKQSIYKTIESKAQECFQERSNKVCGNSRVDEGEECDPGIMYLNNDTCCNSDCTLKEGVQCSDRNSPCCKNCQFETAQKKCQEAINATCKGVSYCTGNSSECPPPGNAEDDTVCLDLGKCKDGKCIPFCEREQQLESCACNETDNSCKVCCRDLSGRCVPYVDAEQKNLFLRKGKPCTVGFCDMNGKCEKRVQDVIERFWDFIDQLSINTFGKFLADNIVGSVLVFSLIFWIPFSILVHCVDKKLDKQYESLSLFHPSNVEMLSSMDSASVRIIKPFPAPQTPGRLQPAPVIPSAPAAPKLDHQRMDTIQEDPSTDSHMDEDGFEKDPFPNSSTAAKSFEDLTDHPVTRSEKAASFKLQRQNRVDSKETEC
Chain of Endoplasmic reticulum aminopeptidase 1 (Q9NZ08 whole entry, the tested form may be a part): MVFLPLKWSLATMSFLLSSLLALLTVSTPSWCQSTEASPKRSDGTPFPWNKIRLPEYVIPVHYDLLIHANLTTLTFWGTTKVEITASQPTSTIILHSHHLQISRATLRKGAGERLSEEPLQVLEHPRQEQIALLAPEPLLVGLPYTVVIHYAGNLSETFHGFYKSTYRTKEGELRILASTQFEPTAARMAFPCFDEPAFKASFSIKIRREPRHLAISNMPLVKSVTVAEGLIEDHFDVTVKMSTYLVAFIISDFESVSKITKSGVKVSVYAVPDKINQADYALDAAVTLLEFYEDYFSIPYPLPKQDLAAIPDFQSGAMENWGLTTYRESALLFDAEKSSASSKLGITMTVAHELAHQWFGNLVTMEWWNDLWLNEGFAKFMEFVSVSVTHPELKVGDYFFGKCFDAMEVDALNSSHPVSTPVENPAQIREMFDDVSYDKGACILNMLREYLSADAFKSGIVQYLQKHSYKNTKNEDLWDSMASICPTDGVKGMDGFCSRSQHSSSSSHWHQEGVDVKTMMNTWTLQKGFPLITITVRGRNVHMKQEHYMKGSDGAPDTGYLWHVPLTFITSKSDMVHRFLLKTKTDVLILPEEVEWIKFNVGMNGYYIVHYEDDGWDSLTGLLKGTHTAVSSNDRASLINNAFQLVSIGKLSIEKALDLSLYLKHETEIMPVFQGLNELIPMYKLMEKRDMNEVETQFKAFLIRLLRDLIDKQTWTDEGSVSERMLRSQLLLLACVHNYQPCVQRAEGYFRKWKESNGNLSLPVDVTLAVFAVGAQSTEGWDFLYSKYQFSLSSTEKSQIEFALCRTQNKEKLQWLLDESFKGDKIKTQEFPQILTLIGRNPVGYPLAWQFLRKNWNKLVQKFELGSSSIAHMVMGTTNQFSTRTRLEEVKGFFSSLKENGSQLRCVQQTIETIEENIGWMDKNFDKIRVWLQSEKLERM
Chain of Cytochrome P450 2C9 (P11712 whole entry): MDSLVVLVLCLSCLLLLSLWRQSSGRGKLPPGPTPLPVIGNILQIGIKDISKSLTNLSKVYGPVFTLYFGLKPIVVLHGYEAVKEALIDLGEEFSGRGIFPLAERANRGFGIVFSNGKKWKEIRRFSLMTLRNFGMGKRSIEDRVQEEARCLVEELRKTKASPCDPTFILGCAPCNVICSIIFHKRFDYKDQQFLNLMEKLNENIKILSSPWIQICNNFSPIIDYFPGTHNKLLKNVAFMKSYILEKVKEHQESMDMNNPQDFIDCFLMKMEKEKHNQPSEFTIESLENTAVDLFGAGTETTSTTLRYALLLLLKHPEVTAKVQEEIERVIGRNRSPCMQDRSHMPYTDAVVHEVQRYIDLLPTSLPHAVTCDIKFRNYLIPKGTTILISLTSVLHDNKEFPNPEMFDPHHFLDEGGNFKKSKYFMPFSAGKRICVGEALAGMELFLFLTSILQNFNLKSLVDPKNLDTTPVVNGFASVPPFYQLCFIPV
Chain of RNA-editing ligase 1, mitochondrial (P86926 whole entry): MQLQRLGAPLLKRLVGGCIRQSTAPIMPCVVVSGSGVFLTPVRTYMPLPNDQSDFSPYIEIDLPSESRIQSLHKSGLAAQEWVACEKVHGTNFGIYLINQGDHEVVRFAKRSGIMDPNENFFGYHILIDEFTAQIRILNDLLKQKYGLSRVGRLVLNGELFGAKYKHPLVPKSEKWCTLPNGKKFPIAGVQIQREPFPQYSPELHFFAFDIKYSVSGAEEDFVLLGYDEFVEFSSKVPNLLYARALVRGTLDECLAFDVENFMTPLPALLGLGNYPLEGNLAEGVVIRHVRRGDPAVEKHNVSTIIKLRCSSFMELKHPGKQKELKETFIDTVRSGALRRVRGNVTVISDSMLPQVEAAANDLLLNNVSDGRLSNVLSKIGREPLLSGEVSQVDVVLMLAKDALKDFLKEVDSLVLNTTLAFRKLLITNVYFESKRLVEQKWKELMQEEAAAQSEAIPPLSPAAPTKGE
Chain of 1-phosphatidylinositol 4,5-bisphosphate phosphodiesterase beta-3 (Q01970 whole entry): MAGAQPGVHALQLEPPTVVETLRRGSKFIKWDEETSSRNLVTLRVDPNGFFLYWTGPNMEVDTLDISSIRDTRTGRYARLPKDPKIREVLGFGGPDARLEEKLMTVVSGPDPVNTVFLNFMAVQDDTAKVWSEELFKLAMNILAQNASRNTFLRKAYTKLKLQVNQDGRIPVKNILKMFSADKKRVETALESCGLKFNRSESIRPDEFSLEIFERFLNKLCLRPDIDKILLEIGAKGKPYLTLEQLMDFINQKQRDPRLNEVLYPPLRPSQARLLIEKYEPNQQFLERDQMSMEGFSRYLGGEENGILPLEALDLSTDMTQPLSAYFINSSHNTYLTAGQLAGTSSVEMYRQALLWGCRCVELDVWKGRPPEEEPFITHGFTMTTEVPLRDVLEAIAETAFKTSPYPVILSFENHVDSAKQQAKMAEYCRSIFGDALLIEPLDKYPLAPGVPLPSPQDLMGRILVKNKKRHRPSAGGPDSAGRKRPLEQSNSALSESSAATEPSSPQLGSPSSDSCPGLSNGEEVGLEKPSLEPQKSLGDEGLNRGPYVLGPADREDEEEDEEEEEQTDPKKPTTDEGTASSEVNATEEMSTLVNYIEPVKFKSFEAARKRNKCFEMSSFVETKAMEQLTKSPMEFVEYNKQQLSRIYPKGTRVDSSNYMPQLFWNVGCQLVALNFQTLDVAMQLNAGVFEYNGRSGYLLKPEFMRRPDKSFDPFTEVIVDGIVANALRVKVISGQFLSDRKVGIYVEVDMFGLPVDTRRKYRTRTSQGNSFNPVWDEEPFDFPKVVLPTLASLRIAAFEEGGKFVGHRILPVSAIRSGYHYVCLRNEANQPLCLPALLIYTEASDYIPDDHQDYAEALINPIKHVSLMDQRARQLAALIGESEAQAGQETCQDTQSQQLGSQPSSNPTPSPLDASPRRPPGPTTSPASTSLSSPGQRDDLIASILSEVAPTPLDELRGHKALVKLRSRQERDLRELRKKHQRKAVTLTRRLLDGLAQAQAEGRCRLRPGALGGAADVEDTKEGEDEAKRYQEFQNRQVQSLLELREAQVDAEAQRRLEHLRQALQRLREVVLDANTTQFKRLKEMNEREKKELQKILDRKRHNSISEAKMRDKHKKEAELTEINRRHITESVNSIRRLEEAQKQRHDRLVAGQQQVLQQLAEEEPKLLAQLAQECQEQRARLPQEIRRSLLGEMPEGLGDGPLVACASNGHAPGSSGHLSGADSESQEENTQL
Chain of Neurotensin receptor type 1 (P30989 whole entry): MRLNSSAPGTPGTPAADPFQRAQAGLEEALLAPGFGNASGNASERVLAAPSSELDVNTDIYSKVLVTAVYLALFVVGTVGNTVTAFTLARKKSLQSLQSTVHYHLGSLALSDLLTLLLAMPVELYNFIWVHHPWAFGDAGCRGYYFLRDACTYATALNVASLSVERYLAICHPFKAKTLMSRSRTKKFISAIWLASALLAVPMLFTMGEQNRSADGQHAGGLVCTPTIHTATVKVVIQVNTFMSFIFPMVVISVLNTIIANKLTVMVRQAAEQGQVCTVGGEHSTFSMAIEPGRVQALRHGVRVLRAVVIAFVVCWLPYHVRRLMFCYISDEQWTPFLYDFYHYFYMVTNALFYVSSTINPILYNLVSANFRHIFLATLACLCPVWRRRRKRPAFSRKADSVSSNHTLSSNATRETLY
Chain of COUP transcription factor 2 (P24468 whole entry): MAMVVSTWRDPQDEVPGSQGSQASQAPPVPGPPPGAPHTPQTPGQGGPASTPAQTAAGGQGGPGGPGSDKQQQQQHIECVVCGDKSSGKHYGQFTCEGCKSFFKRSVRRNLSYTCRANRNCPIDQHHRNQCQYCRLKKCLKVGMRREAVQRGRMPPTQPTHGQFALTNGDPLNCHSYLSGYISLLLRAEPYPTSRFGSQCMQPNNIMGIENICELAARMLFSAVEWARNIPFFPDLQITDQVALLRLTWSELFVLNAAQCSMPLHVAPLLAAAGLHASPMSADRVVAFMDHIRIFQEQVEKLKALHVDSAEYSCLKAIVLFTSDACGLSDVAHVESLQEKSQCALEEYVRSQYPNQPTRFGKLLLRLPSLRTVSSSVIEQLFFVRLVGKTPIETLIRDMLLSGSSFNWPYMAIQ

COc1ccc2c3c([nH]c2c1)[C@H](CO)N(Cc1cc(F)ccc1F)CC31CN(C)C1
AC50 [1]: 6.53 µM (active)

CC(=NNC(=O)CSc1nnc(-c2ccc(C(C)(C)C)cc2)n1-c1ccccc1)c1cccc2ccccc12
IC50 [2]: > 69.5 µM (inactive) | IC50 [3]: > 69.5 µM (inactive) | IC50 [4]: > 69.5 µM (inactive)

O=C(CCCN1C(=O)/C(=C/c2ccco2)SC1=S)Nc1cccc(C(=O)O)c1
IC50 [5]: > 122 µM (inactive) | AC50 [6]: > 20 µM (inactive) | IC50 [7]: > 122 µM (inactive)

COC(=O)CCCCOc1ccc2cc(Br)c(=O)oc2c1
IC50 [8]: > 100 µM (inactive) | IC50 [9]: > 100 µM (inactive)

COc1ccc([C@@H]2CC=C(C(=O)O)[C@H](c3ccccc3F)N2S(=O)(=O)c2ccccc2C)cc1
EC50 (Transthyretin): > 167 µM (inactive)

O=C(C[C@H]1C/C=C\CC[C@@H](Cc2ccc(F)cc2)C(=O)O[C@@H](c2ccccc2)CNC1=O)N[C@H](CO)Cc1ccccc1
IC50 [2]: > 69.5 µM (inactive) | IC50 [10]: > 69.5 µM (inactive)

COc1ccccc1N1CCN(CCCCNC(=O)c2ccc(-c3ccc(C(C)=O)cc3)cc2)CC1
IC50 [11]: > 33.3 µM (inactive) | AC50 (Cytochrome P450 2C9): inconclusive

C[C@@H]1CN([C@H](C)CO)C(=O)c2cc(NS(=O)(=O)c3ccc(Cl)cc3)ccc2O[C@@H](C)CCCCO[C@H]1CN(C)C(=O)Nc1ccc(C(F)(F)F)cc1
AC50 [12]: 35.2 µM (active) | AC50 [13]: 17.9 µM (active) | AC50 (Paired box protein Pax-8): 2.86 µM (active) | AC50 [14]: 29.6 µM (active)

CC(C)Cc1ccc(C(C)C(=N)NCCc2ccccc2)cc1 (stereo not given)
AC50 [15]: 2.78 µM (active) | AC50 [16]: 4.62 µM (active) | IC50 [17]: > 96.6 µM (inactive) | CC50 [18]: 12.1 µM (active) | AC50 [19]: 21.6 µM (active) | EC50 (HEK293 [20]): > 59.7 µM (inactive) | AC50 [21]: 7.77 µM (active) | EC50 (HEK293 [22]): > 59.7 µM (inactive) | AC50 [23]: 14.3 µM (active) | IC50 [24]: 3.3 µM (active)

CCOC(=O)c1c(C)[nH]c(C(=O)OCC(=O)Nc2sccc2C(N)=O)c1C
EC50 [25]: 3.35 µM (active) | EC50 [26]: > 195 µM (not active) | IC50 [27]: 8.54 µM (active)

CSc1nc(N)nc(SC2C=CCCC2)c1C#N (stereo not given)
AC50 [28]: > 52 µM (inactive)

CC(C)N(CC(=O)Nc1ccccc1)S(C)(=O)=O
EC50 [29]: 10 µM (inconclusive)

Cc1ccc(CNC(=O)CSc2c3c(nc4ccc(Cl)cc24)CCCC3)o1
AC50 [30]: 37.6 µM (active) | AC50 [31]: 10.7 µM (active) | AC50 [32]: 5.98 µM (active)

CCCOc1ccc(S(=O)(=O)NCc2cccnc2)cc1
AC50 [33]: > 70 µM (inactive) | AC50 [34]: 13.1 µM (active) and 17.6 µM (active)

CCOC(=O)C1(CCOC)CCN(Cc2cnc(-c3cccc(C)c3)nc2)CC1
CC50 [35]: > 40 µM (active) | AC50 [36]: > 30 µM (inactive)
